Source: patent publication US6573274B1, “Sulfonamide compounds and uses thereof as medicines” (Fujisawa Pharmaceutical Co. Ltd., priority 1998, dated 2003)

Columns and labels:
[1] = Oral absorption (Cmax) in rats; assay type: in vivo; details: sodium salt compared to the free compound
[2] = Oral absorption (Cmax) in dogs; assay type: in vivo; details: sodium salt compared to the free compound
db/db mice = details: female db/db mice; Dose 1 mg/kg, drug mixed with diet; difference between db/db control group and +/+ mice taken as 100%
Description: Blood Sugar Level Depressing Activity in db/db Mice
Female C57BL/KsJ-dbm db+/db+, C57BL/KsJ-dbm +m/+m (Jackson Laboratory) mice (5 weeks old) were purchased and subjected to the test after 2-3 weeks of acclimating period.
The test drug was mixed with a powder diet (CE-2, Clea Japan, Inc.) in a mortar. In the case of administration in 100 mg/kg, the mixing proportion was 0.1%, in the case of 30 mg/kg, the proportion was 0.03% and in the case of 10 mg/kg, the proportion was 0.01%. The diet was changed twice a week for each group. The amount of the diet given and the amount left were recorded and the diet intake was calculated by determining the difference.
The female db/db mice were grouped according to body weight, blood sugar level and triglyceride concentration in plasma. […] The blood sugar level, triglyceride concentration in plasma and insulin concentration in plasma were measured at day 0 and day 14, and blood sugar level and triglyceride concentration in blood were measured at day 7.
Blood sugar level was measured using 10-15 μl of plasma and in accordance with glucose oxidase method (glucose CII-Test Wako, Wako Pure Chemicals Co., Ltd.). The triglyceride concentration in plasma was measured using 10-15 μl of plasma and in accordance with GPO-p-chlorophenol method (triglyceride G-Test Wako) or GPO-DAOS method (triglyceride E-Test Wako). […]

| SMILES | melting point [°C] | further results |
| --- | --- | --- |
| CCCCCS(=O)(=O)NC(=O)c1ccc2nc(C)n(Cc3ccc(OCC4CCCCC4)cc3Cl)c2n1.[Na] [Example 85, 3-[2-chloro-4-(cyclohexylmethyloxy)benzyl]-2-methyl-5-(1-pentanesulfonylcarbamoyl)-3H-imidazo[4,5-b]pyridine sodium salt] | > 250 | Cmax, times greater than the free (non-salt) compound ([1]; rats, oral): 2 to 3 times; oral absorption as compared to the free (non-salt) compound ([1]; demonstrated by Cmax in rats and dogs): markedly improved; Cmax, times greater than the free (non-salt) compound [2]: about 16 times |
| CCCOc1ccc(Cn2c(C)nc3c(C)cc(C(=O)NS(=O)(=O)c4ccc(C)cc4)nc32)c(Cl)c1 [Compound A, 3-(2-Chloro-4-(1-propoxy)benzyl)-2,7-dimethyl-5-[(4-methylbenzene)sulfonylcarbamoyl]-3H-imidazo[4,5-b]pyridine] |  | Blood sugar decrease (%) (db/db mice): 97% |
| CCCCCS(=O)(=O)NC(=O)c1ccc2nc(C)n(Cc3ncc(Cl)cc3Cl)c2n1 [Example 123, 3-[(3,5-dichloropyridin-2-yl)methyl]-2-methyl-5-(1-pentanesulfonylcarbamoyl)-3H-imidazo[4,5-b]pyridine] | 155 to 156 |  |
| CCCCS(=O)(=O)NC(=O)c1ccc2nc(C)n(Cc3ccc(OCC)cc3Cl)c2n1 [Example 9, 5-(1-butanesulfonylcarbamoyl)-3-(2-chloro-4-ethoxybenzyl)-2-methyl-3H-imidazo[4,5-b]pyridine] | 151 to 152 |  |
| CCCCCOc1ccc(Cn2c(C)nc3ccc(C(=O)NS(=O)(=O)c4ccc(Br)s4)nc32)c(Cl)c1 [Example 23, 5-[(5-bromothiophen-2-yl)sulfonylcarbamoyl]-3-[2-chloro-4-(1-pentyloxy)benzyl]-2-methyl-3H-imidazo[4,5-b]pyridine] | 156 to 157 |  |
| CCCCCS(=O)(=O)NC(=O)c1cc(C)c2nc(C)n(Cc3ccc(N(CC)C(=O)OC(C)(C)C)cc3Cl)c2n1 [Example 81, 3-[4-(N-(tert-butoxycarbonyl)-N-ethylamino)-2-chlorobenzyl]-2,7-dimethyl-5-(1-pentanesulfonylcarbamoyl)-3H-imidazo[4,5-b]pyridine] | 190 to 191 |  |
